Paper PMC7496931, “Activation of Sirtuin 2 Inhibitors Employing Photoswitchable Geometry and Aqueous Solubility” (Chemmedchem, 2020)
Like-named read-outs stand apart in the source and are kept apart here. Blank lines part the entries; values can stand above or below the compound they belong to.

How the values were obtained:
Sirt2 [1] = target: T1, Sirt2 (Homo sapiens, UniProt Q8IXJ6); assay: Fluorescence-based ZMAL deacetylase activity assay, Sirt2; format: biochemical; settings: non-irradiated; for IC50: read-out: Sirt2 inhibition, IC50; for inhibition at 10 µM / inhibition at 100 µM: read-out: Sirt2 inhibition, percent inhibition relative to controls
T1 construct: Expression and purification of Sirt1_133−747, Sirt2_56−356, and Sirt3_118−395 was carried out as described previously; made in house
T1 sequence (Q8IXJ6 56-356): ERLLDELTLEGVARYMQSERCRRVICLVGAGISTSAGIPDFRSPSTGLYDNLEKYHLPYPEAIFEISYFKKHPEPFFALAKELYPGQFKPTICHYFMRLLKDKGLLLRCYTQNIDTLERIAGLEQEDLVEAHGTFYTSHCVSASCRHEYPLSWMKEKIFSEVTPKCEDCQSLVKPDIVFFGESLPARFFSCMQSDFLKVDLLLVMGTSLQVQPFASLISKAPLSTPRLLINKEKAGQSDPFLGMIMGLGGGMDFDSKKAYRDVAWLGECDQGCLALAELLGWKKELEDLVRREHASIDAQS
Description: (§1) The effect of the compounds on deacetylase activity of three human sirtuin isotypes (Sirt1–3) was investigated by a homogeneous fluorescence‐based assay, using (Z)‐Lys(acetyl)‐AMC (ZMAL) as substrate. In order to determine the impact of photoisomerization, the respective compounds were irradiated (365 nm, 5 min) in DMSO prior to incubation in the enzyme assay mixture. The results of the irradiated probes were finally compared to non‐irradiated measurements.
(§2) Cloning, expression and purification of recombinant proteins: Expression and purification of Sirt1_133−747, Sirt2_56−356, and Sirt3_118−395 was carried out as described previously.27 Identity and purity were verified by SDS‐PAGE.
(§3) Fluorescence‐based activity assay: The inhibitory effect of compounds on Sirt1–3 was detected via a previously reported fluorescence‐based assay.29 The synthetic substrate (Z)‐Lys(acetyl)‐AMC (ZMAL) is deacetylated by sirtuins, followed by tryptic digestion and thereby release of 7‐aminomethylcoumarin, leading to a fluorescent readout. Inhibition was determined by comparing percentage substrate conversion to a DMSO control after subtraction of the blank fluorescence signal. All compounds were tested at 100 or 50 μM and 10 μM respectively. […] IC50 values were calculated with OriginPro 9.0 G using a non‐linear regression to fit the dose response curve (Figure S6). An enzyme‐free blank control and a 100 % conversion control using AMC instead of ZMAL were measured as well. Inhibition measurements were performed in biological duplicates for all compounds. […]
(§4) Fluorescence-Based Activity Assay (ZMAL-Assay)
(§5) The influence of the synthesized compounds on the deacetylase activity of the class I sirtuins Sirt1–3 was determined in a homogenous fluorescence-based enzyme assay, using the artificial substrate Z-(Ac)Lys-AMC (ZMAL). ZMAL is processed by sirtuins yielding Z-Lys-AMC.
(§6) The latter is subsequently cleaved by tryptic digestion, releasing 7-amino-4-methylcoumarin (AMC), excitation of which leads to a fluorescent read out (λex=390 nm; λem=460 nm). Instead, […]
(§7) contribute to the fluorescence signal. Therefore, the fluorescence intensity is proportional to the activity of the respective sirtuin.
(§8) After subtraction of the blank fluorescence signal (without enzyme) from the signal of the respective probe, the residual signal intensity is related to a 100 % conversion control (AMC), […]
(§9) yielding the percentage substrate conversion. Comparison of the determined substrate conversion with a no-inhibition DMSO control yields the percentage inhibition at the respective […]
(§10) For determination of IC50, inhibitory activity of the respective compound was determined at 8 to 10 distinct concentrations. The measured values were analysed by a non-linear fit to the dose-response curve using a four parameter logistic model (Figure S6):
(§11) Figure S6: Non-linear regression of the dose-response curves of compounds 15c and 15f at the thermal equilibrium (∆, black) and after 5 minutes of 365 nm irradiation (red). […]
(§12) A maximal polarization control using just DMSO and a minimal polarization control using 1 µL of the 400 µM solution of 22 instead of inhibitor were performed as well as a blank control containing 1 µL of DMSO in 19 µL assay buffer. The mixture was incubated 10 min at 37 °C

Sirt3 = target: T2, Sirt3 (Homo sapiens, UniProt Q9NTG7); assay: Fluorescence-based ZMAL deacetylase activity assay, Sirt3; format: biochemical; settings: non-irradiated; for IC50: read-out: Sirt3 inhibition, IC50
T2 construct: Expression and purification of Sirt1_133−747, Sirt2_56−356, and Sirt3_118−395 was carried out as described previously; made in house
T2 sequence (Q9NTG7 118-395): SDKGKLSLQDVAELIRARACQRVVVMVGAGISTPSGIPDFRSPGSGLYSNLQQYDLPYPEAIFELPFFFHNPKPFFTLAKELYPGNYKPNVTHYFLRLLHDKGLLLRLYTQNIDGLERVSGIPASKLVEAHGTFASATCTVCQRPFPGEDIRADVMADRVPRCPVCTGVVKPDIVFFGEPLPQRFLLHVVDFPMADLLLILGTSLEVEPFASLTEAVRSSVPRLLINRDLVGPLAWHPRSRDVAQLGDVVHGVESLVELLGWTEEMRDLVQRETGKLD
Description: as §1, §2, §3, §4, §5, §6, §7, §8, §9, §10, §11, §12

Sirt1 = target: T3, Sirt1 (Homo sapiens, UniProt Q96EB6); assay: Fluorescence-based ZMAL deacetylase activity assay, Sirt1; format: biochemical; settings: non-irradiated
T3 construct: Expression and purification of Sirt1_133−747, Sirt2_56−356, and Sirt3_118−395 was carried out as described previously; made in house
T3 sequence (Q96EB6 133-747): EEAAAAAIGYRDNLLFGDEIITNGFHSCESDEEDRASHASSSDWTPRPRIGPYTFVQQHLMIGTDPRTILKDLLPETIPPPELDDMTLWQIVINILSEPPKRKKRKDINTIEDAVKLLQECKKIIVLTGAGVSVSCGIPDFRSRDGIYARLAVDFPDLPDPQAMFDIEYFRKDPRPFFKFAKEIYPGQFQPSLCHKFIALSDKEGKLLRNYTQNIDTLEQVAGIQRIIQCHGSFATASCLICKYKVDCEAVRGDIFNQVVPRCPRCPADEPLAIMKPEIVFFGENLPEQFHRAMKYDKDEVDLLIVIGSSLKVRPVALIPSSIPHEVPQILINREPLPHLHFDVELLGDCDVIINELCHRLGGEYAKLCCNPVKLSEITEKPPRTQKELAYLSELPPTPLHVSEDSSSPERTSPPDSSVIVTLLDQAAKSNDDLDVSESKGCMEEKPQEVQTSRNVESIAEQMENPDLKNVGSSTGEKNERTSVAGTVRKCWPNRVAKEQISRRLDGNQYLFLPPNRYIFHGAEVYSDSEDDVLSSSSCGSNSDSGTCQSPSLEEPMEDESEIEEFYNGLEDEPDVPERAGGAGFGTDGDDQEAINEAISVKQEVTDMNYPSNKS
Description: as §1, §2, §3, §4, §5, §6, §7, §8, §9, §10, §11
A maximal polarization control using just DMSO and a minimal polarization control using 1 µL of the 400 µM solution of 22 instead of inhibitor were performed as well as a blank control containing 1 µL of DMSO in 19 µL assay buffer. The mixture was incubated 10 min at 37 °C […]
(§13) (1 picture or pasted object on this page, not shown here)

[2] = UV/Vis spectra and half-life of thermal Z→E isomerization; format: physicochemical
Description: Photochemistry: All photoisomerization experiments were conducted under ruby light of 630 nm and total exclusion of daylight. Illumination was executed using a Bio‐Link 254 Crosslinker from Vilber‐Lourmat equipped with six Vilber‐Lourmat T8‐L lamps (8 W, 365 nm). Visible light radiation of 630 nm (ruby) and 452 nm (blue) was derived from a Paulmann FlexLED 3D strip. All compounds were irradiated in solution using spectrophotometric grade solvents. Photoisomerization and UV/Vis‐spectra measurement was conducted in quartz glass cuvettes (114‐QS, Hellma Analytics) at room temperature.
UV/Vis Spectra and Half-Life of Thermal Isomerization
The half-life of the thermal Z→E isomerization after 5 minutes of 365 nm irradiation was determined by UV/Vis-spectroscopy. Therefore, solutions of the respective compounds (50 µM) in 5%, 50% or 90% DMSO in enzyme assay buffer (v/v) were prepared. An initial spectrum of the thermal equilibrium was recorded. After 5 minutes of irradiation with 365 nm the increase of absorbance at the thermal equilibrium maximum (λ∆max) was recorded as exemplified by compound 15c (Figure S3). Absorbance at λ = λ ∆max was plotted as a function of time. Non-linear regression yielded the half-life of the thermal Z→E isomerization (Table S1). For extrapolation of the reaction kinetics, the plateau value was set to the initial absorbance at λ=λ∆max. The following equation was used for non-linear regression:
y = (y0 − Plateau)e−kx + Plateau
Figure S3: Left: UV-Vis spectrum of 15c (50 µM) in assay buffer (5% DMSO, v/v) at the thermal equilibrium (∆) and the photostationary state (PSS) after UV irradiation (365 nm). Right:
Absorbance of 15c (50 µm) in assay buffer (5% DMSO, v/v) at λ∆max = 328 nm after 5 minutes of UV (365 nm) irradiation.
as §13

Sirt2 [3] = target: T1, Sirt2; design: method as in PMID 29685963; settings: lead 3, previously published; read-out: Sirt2 inhibition, IC50; cited from earlier work
[4] = read-out: Sirt1 inhibition, percent inhibition relative to controls
[5] = read-out: Sirt3 inhibition, percent inhibition relative to controls

SMILES: COC(=O)c1cncc(/N=N/c2cc(C)c(N)c(C)c2)c1 [6 f]
Sirt2 inhibition (class) (Sirt2 [1]): n.i. (n.i.: no inhibition detected (<30 % @ 100 μM))
Sirt3 inhibition (class) (Sirt3): n.i. (n.i.: no inhibition detected (<30 % @ 100 μM))
Sirt1 inhibition (class) (Sirt1): n.i. (n.i.: no inhibition detected (<30 % @ 100 μM))
melting point: 190.6 °C

SMILES: Cc1cc(O)cc(C)c1/N=N/c1cncc(C(N)=O)c1 [7 a]
IC50 (Sirt2 [1]): 7.9 ± 0.6 µM
IC50 (Sirt3): 9.5 ± 0.9 µM
inhibition at 50 µM (Sirt1; [4]): 14%

SMILES: Cc1cc(/N=N/c2cncc(C(N)=O)c2)cc(C)c1O [7 b]
thermal Z→E isomerization (in words) ([2]; in acetonitrile): rapid thermal isomerization
IC50 (Sirt2 [1]): 10.8 ± 0.6 µM
IC50 (Sirt3): 7.9 ± 0.5 µM
inhibition at 50 µM (Sirt1; [4]): 19%
melting point: 166.4 °C

SMILES: COc1cc(/N=N/c2cncc(C(N)=O)c2)cc(OC)c1O [7 d]
inhibition at 10 µM (Sirt2 [1]): 62%
inhibition at 50 µM (Sirt3; @ 50 μM, read-out: Sirt3 inhibition, percent inhibition relative to controls): 39%
inhibition at 10 µM (Sirt1; [4]): 10%
melting point: 250.2 °C

SMILES: CN(C)c1ccc(/N=N/c2cncc(C(N)=O)c2)cc1 [7 e]
inhibition at 10 µM (Sirt2 [1]): 54%
inhibition at 10 µM (Sirt3; [5]): 66%
inhibition at 10 µM (Sirt1; [4]): 17%

SMILES: Cc1cc(O)cc(C)c1/C=C/c1cncc(C(N)=O)c1 [compound 3]
IC50 (Sirt2 [3]): 25 µM

SMILES: CCOC(=O)c1cncc(/N=N/c2cc(C)c(N)c(C)c2)c1 [compound 11]
Sirt2 inhibition (class) (Sirt2 [1]): n.i. (n.i.: no inhibition detected (<30 % @ 100 μM))
Sirt3 inhibition (class) (Sirt3): n.i. (n.i.: no inhibition detected (<30 % @ 100 μM))
Sirt1 inhibition (class) (Sirt1): n.i. (n.i.: no inhibition detected (<30 % @ 100 μM))

Now from value to compound, other results behind:

inhibition at 100 µM (Sirt2 [1]): 45%
inhibition at 100 µM (Sirt3; [5]): 45%
inhibition at 100 µM (Sirt1; @ 100 μM, read-out: Sirt1 inhibition, percent inhibition relative to controls): 33%
SMILES: CNC(=O)c1cncc(/N=N/c2cc(C)c(N)c(C)c2)c1 [12 a]

inhibition at 10 µM (Sirt2 [1]): 16%
inhibition at 10 µM (Sirt3; [5]): 11%
SMILES: CCNC(=O)c1cncc(/N=N/c2cc(C)c(N)c(C)c2)c1 [12 b]
Sirt1 inhibition (class) (Sirt1): n.i. (n.i.: no inhibition detected (<30 % @ 100 μM))

inhibition at 10 µM (Sirt2 [1]): 17%
inhibition at 10 µM (Sirt3; [5]): 11%
SMILES: CCCCNC(=O)c1cncc(/N=N/c2cc(C)c(N)c(C)c2)c1 [12 c]
Sirt1 inhibition (class) (Sirt1): n.i. (n.i.: no inhibition detected (<30 % @ 100 μM))

inhibition at 100 µM (Sirt2 [1]): 43%
inhibition at 100 µM (Sirt3; [5]): 43%
SMILES: Cc1cc(/N=N/c2cncc(C(=O)NCCO)c2)cc(C)c1N [12 d]
Sirt1 inhibition (class) (Sirt1): n.i. (n.i.: no inhibition detected (<30 % @ 100 μM))

thermal Z→E isomerization (in words) ([2]; aqueous solution): rapid thermal Z→E isomerization
inhibition at 10 µM (Sirt2 [1]): 49%
IC50 (Sirt2 [1]): ~10 µM
inhibition at 10 µM (Sirt3; [5]): 33%
melting point: 202.1 °C
SMILES: NC(=O)c1cncc(OCc2cccc(/N=N/c3ccc(N4CCOCC4)cc3)c2)c1 [20 d]
Sirt1 inhibition (class) (Sirt1): n.i. (n.i.: no inhibition detected (<30 % @ 100 μM))
